According to PubChem BioAssay AID488788 (Broad Institute, 2010):
Results filed as inconclusive are left out. Active and inactive are the calls of the source. No rule for the calls is given here.

Target: CAAX prenyl protease 2 (Saccharomyces cerevisiae (strain ATCC 204508 / S288c)) (UniProt Q03530)
Experiment: yeast Rce1 CAAX endoprotease inhibition – biochemical, plate reader, cherry-pick, dose response (AID 488788)
Details: Rce1p enzyme activity, at 10 µM (top of the series)

Sequence of CAAX prenyl protease 2 (Saccharomyces cerevisiae (strain ATCC 204508 / S288c)) (Q03530 whole entry, looked up): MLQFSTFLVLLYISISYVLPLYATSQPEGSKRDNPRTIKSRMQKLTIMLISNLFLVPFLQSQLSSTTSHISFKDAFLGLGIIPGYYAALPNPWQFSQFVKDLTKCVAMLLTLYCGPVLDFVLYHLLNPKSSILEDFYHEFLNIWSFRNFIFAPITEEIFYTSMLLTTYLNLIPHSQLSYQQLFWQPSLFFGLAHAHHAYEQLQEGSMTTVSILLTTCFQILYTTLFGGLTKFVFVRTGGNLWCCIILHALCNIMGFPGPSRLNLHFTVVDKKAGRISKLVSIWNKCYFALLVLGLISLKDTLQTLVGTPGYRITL

Structure (SMILES) | activity change, negative = inhibition
CCCCn1c(=O)c(-c2ccccc2)c(O)c2ccccc21 | inactive
CCOC(=O)c1sc2nc(C3CC3)cc(-c3ccc(OC)cc3)c2c1N | inactive
CN(C)CCNc1ncnc2oc(-c3ccccc3)c(-c3ccccc3)c12 | inactive
COc1ccc(-n2c(N)c(C(=O)NCc3ccco3)c3nc4ccccc4nc32)c(OC)c1 | inactive
Cc1cc(C)cc(N2CC(O)=C(c3nc4ccccc4c(=O)[nH]3)C2=N)c1 | inactive
c1ccc(C[n+]2cccc3c4ccccc4ccc32)cc1 | inactive
CCN1CCN(CC(O)COc2ccc3c(C)cc(=O)oc3c2)CC1 (stereo unspecified) | inactive
OC1CCN(C(c2ccc3ncccc3c2)c2nnnn2C2CCCCC2)CC1 (stereo unspecified) | inactive
CSc1nc(NCC(C)O)c2c3c(sc2n1)CN(C)CC3 (stereo unspecified) | inactive
CN1CC(C(=O)c2ccc(Cl)cc2)C(c2ccc(Cl)cc2Cl)C1 (stereo unspecified) | inactive
COCCn1cc(C(=O)NCCN(C)C)c2c3ccccc3n(C)c2c1=O | inactive
CC(=O)OCC[N+](C)(C)C | inactive
COCCCNC(=S)NCCNc1nc2cc(C)cc(C)c2cc1C#N | inactive
O=C1CN(S(=O)(=O)c2ccc([N+](=O)[O-])cc2)CC(=O)N1 | inactive
O=C(CCCn1c(=O)[nH]c2ccc(Br)cc2c1=O)NCc1ccc(Cl)cc1 | inactive
COc1ccc(/C=C/c2nc3ccccc3n2C)cc1 | inactive
Cc1nc(N2CCOCC2)c2cc(-c3ccccc3)sc2n1 | inactive
COc1ccc(C)c2sc(NC(=O)C3=COCCO3)nc12 | inactive
COc1ccc(-c2cc3ccccc3n2CC(O)CNCCO)cc1 (stereo unspecified) | inactive
COc1ccc(-c2cn3ccccc3n2)cc1[N+](=O)[O-] | inactive
CCOC(=O)c1c(-c2ccc(OC)cc2)oc2ccc(OC(=O)N(C)C)cc12 | inactive
CC(C)C[C@H](NC(=O)c1nc[nH]c1C(=O)N1CCNCC1)C(=O)OCc1ccccc1 | inactive
CCn1c(COc2cccc(C)c2)nnc1SCC(=O)NC1CCCC1 | inactive

Structure (SMILES) | activity change, negative = inhibition
COC(=O)c1ccc(-c2ccc(CNCC(O)c3ccccc3)o2)cc1 (stereo unspecified) | inactive
COc1cc(-c2nc3ccccn3c2/N=C/c2cc(OC)c(OC)c(OC)c2)ccc1O | inactive
COC(C[C@@H]1O[C@@H]1C(=O)[C@@H](C)OCc1ccccc1)OC | inactive
Oc1ccc(-c2cn3cc(C(F)(F)F)ccc3n2)cc1 | inactive
Cc1c(Cl)c([N+](=O)[O-])nn1CC(=O)N1CCCc2ccccc21 | inactive
COc1ccc(-c2cc(C(F)(F)F)nc(SCC(=O)NCc3cnn(C)c3C)n2)cc1OC | inactive
CC1CCC/C(=C\Nc2ccccc2C(=O)O)C1=O (stereo unspecified) | inactive
CN1CCN(C(=S)NC(=O)c2ccccc2Cl)CC1 | inactive
Cc1nn(-c2ccccc2)c2nc(N)c(C(N)=O)cc12 | inactive
Cc1ccc(S(=O)(=O)Oc2ccc(C3C4=C(CCCC4=O)N(CCC(=O)O)C4=C3C(=O)CCC4)cc2Cl)cc1 | inactive
Cc1ccc(S(=O)(=O)CC(=O)N2CCN(c3ccccc3F)CC2)cc1 | inactive
CC(C)N1CCN(S(=O)(=O)c2ccc3ccccc3c2)CC1 | inactive
COc1cc2c(cc1OC)C(C)N(C(=O)c1cc3c(=O)oc4ccc(C)cc4c3s1)CC2 (stereo unspecified) | inactive
Cn1c(=O)c(C(=O)NCCO)c(O)c2ccccc21 | inactive
N=C(N)c1ccc(/C=C/c2ccc(C(=N)N)cc2O)cc1 | inactive
CC1=NN(c2ccccc2)C(=O)/C1=C\c1ccc(Br)s1 | inactive
CC(C)CC(=O)Nc1ccc2oc(-c3cccnc3)nc2c1 | inactive
O=C1C(Cc2c[nH]c3ccccc23)NC(=S)N1Cc1ccccc1 (stereo unspecified) | inactive
CCc1ccc(NC(=O)c2cnc(N3CCN(c4ccccn4)CC3)c3ccccc23)cc1 | inactive
Cc1ccc(C(=O)c2c3ccccc3[n+]([O-])n2CCO)cc1 | inactive
Cc1ccnc(-n2c(-c3ccco3)nc3ccccc3c2=O)c1 | inactive
N#CC(/C(=N/S(=O)(=O)c1cccs1)c1ccccc1)c1nc2ccccc2[nH]1 (stereo unspecified) | inactive
COC(C/C=C/[C@H](O)[C@@H](C)OCc1ccccc1)OC | inactive

Structure (SMILES) | activity change, negative = inhibition
O=C(NCCc1c[nH]c2ccccc12)OCCSS(=O)(=O)O | inactive
O=C(COc1ncnc2cc([N+](=O)[O-])ccc12)NC(=O)NC1CCCCC1 | inactive
CCN(CC)CCNC(=O)CSc1c2c(nc3cc(Cl)ccc13)CCCC2 | inactive
Nc1nc2c(ncn2COC(CO)CO)c(=O)[nH]1 | inactive
CCOC(=O)c1c(C2COc3ccccc3O2)csc1NC(=O)c1ccccc1 (stereo unspecified) | inactive
Cc1cc(N2CCOCC2)n2cc(-c3ccccc3)nc2n1 | inactive
CCOc1ccccc1CNC(=O)c1cc2occc2n1C | inactive
CCN(CC)c1ccc(C(=O)c2ccccc2C(=O)O)c(O)c1 | inactive
Cc1ccc(C(=O)N2N=C(c3ccccc3O)CC2c2ccccc2)cc1 (stereo unspecified) | inactive
COC(=O)c1sccc1NC(=O)CSc1nnnn1-c1ccccc1C | inactive
CCCCOc1ccc(C(=O)Nn2c(-c3cccs3)nc3ccccc3c2=O)cc1 | inactive
NC(N)=NC(=O)c1nc(Cl)c(N)nc1N | inactive
CCCCn1c(-c2sccc2C)n[nH]c1=S | inactive
C#CCNC(=O)C1=C[C@@H](C2CCCCC2)C[C@@H](OCc2ccc(CO)cc2)O1 | inactive
O=C1NC(c2ccc(Br)cc2)Nc2ccccc21 (stereo unspecified) | inactive
Nc1nc2n[nH]nc2c(=O)[nH]1 | inactive
c1ccc(CCCN2CCN(CCOC(c3ccccc3)c3ccccc3)CC2)cc1 | inactive
COc1cc(-c2c(C#N)c(N)nc3c2c(C)nn3-c2ccc(C)c(C)c2)cc(OC)c1OC | inactive
CC(C)CNC(=O)COc1cccc(C(=O)NCc2ccccc2)c1 | inactive
CCOC(=O)c1nnn2c1nc(N1CCOCC1)c1ccccc12 | inactive
COc1cc(-c2nc3ccccn3c2/N=C/c2ccccc2)ccc1O | inactive
COc1ccc(OC)c(NC(=O)c2cc3oc4ccccc4c3cc2O)c1 | inactive
Cc1cc(C)n(CC(=O)NC2CCCCC2C)c(=O)c1C#N (stereo unspecified) | inactive

Structure (SMILES) | activity change, negative = inhibition
CCN1CCN(Cc2c(O)ccc3c(=O)c(-c4ccccc4OC)coc23)CC1 | inactive
CCn1nc(C)cc1C(=O)NC1CC(C)(C)Cc2c1cnn2-c1cccc(F)c1 (stereo unspecified) | inactive
FC(F)(F)c1cc(Oc2ccccc2)ncc1-c1nnc(-c2ccccc2Cl)o1 | inactive
Cc1nc(N2CCOCC2)c2c(C)c(C(=O)Nc3ccccc3C(F)(F)F)sc2n1 | inactive
C=CCn1c(N2CCCCCC2)nc2c1c(=O)n(C)c(=O)n2C | inactive
Cc1ccccc1OC(C)C(=O)N1CCC(Cc2ccccc2)CC1 (stereo unspecified) | inactive
CC(Cc1cccs1)NC(=O)Nc1ccc([N+](=O)[O-])cc1 (stereo unspecified) | inactive
O=C(C1CCC(=O)N(C2CC2)C1)N1CCN(c2ccccc2Cl)CC1 (stereo unspecified) | inactive
COC(=O)C(Cc1ccccc1)OS(N)(=O)=O (stereo unspecified) | inactive
CC(C)NCC(O)COCCOc1ccc(Br)cc1 (stereo unspecified) | inactive
CCOc1ccc(NC(=O)CCSc2ccc(C)cc2)cc1 | inactive
COc1ccc(-c2c(-c3ccsc3)oc3ccc(N4CCOCC4)cc23)cn1 | inactive
CC(C)CC(=O)NC(=S)Nc1ccc(S(=O)(=O)Nc2nccs2)cc1 | inactive
C/C(=N\NC(=O)c1ccc(Br)cc1)c1cccc(NC(=O)c2cccnc2)c1 | inactive
Cc1nn(CCC(=O)O)c2nc(-c3cccnc3)cc(C(F)(F)F)c12 | inactive
COc1cc2c(cc1OC)C(C)N(C(=O)CCNC(=O)c1ccccc1)CC2 (stereo unspecified) | inactive
Cc1cc(Br)ccc1NC(=O)c1cnc(N2CCN(c3ccccn3)CC2)c2ccccc12 | inactive
O=C1CN(C(=O)NCC(=O)N2CCCC2)c2ccccc2N1 | inactive
O=S(=O)(CC(CN1CCOCC1)N1CCOCC1)c1ccccc1 (stereo unspecified) | inactive
C=CC[N+]1(C)CC[C@]23c4c5ccc(O)c4O[C@H]2C(=O)CC[C@@]3(O)[C@H]1C5 (stereo partly specified) | inactive
CCCCOC(=O)Nc1nc(C)c(C(=O)OCC)s1 | inactive
CN(C)CC(C)(C)CNC(=S)NCc1ccc2c(c1)OCO2 | inactive
